What was measured:
CD26/DPP-4 mRNA = CD26/DPP-4 mRNA expression by RT-PCR in vascular smooth muscle cells; format: cell-based, mice; conditions: extent in proportion to the concentration of DETA-NO, FIG. 4
[1] = system: calcification of the cardioaorta; experiment: In vivo calcium deposition in the cardioaorta by Osteosense fluorescence; conditions: control and eNOS KO transgenic mice, FIG. 11
Description: To determine whether the calcification of the cardioaorta decreased by the CD26 inhibitor, a CD26 inhibitor drug, DPPIV inhibitor sitagliptin, was administered to the control and the eNOS KO transgenic mice. Thereafter, the intensity of fluorescence was monitored by injecting Osteosense into the mice to check the in vivo calcium deposition. In FIG. 11, the red intensity of fluorescence represents a level of calcification.

[2] = system: vascular smooth muscle cells from the eNOS KO mice; experiment: Osteogenic differentiation of vascular smooth muscle cells (ALP, AR, VK staining); format: cell-based; conditions: FIG. 10B
Description: The aorta extracted with the heart was washed with a serum-free M199 medium (Cellgro), and cut into small pieces. Thereafter, 20% fetal calf serum, and 3 mg/mL collagenase (Sigma) were added to the M199 medium, and […] for 3 hours in a 37° C. water bath. Then, it was confirmed that the separated cells were vascular smooth muscle cells using an α-SM actin monoclonal antibody (Sigma). The separated vascular smooth muscle cells were divided at a 30% concentration, and the medium used was replaced with osteogenic medium (Osteogenic Basal Medium, Osteogenic SingleQuots, Lonza, USA) after 24 hours. The medium was replaced every 3 days, and the cell culture was performed for 28 days. The concentration of sCD26/DPP-4 was measured upon medium replacement.
For the wild-type mice and eNOS KO mice, it was determined whether the promotion of ossification of vascular smooth muscle cells was induced by CD26 using an ALP staining method as a staining method used at the initial calcification stage, an AR staining method as a staining method used at the middle calcification stage, and a VK staining method as a staining method used at the late calcification stage.
Also, the vascular smooth muscle cells from the eNOS KO mice were treated with CD26 and a CD26 inhibitor, diprotin A, respectively.

Compound: NCCN(CCN)/[N+]([O-])=N/O [DETA-NO]
- expression of the CD26/DPP-4 mRNA (CD26/DPP-4 mRNA): decreased

Compound: N[C@@H](CC(=O)N1CCn2c(nnc2C(F)(F)F)C1)Cc1cc(F)c(F)cc1F [sitagliptin]
- calcification in the cardioaorta [1]: slowly proceeded

Compound: diprotin A
- osteogenic differentiation [2]: inhibited
